# Laboratory results taken from paper PMC8102414 (Heliyon, 2021).
# Like-named read-outs stand apart in the source and are kept apart here.
# How the values were obtained:
# [1] = tested on: 3T3-L1 adipocyte cells; assay: Glucose consumption assay; assay type: cell-based; conditions: for EC50: Mus musculus, 3T3-L1, read-out: Glucose consumption (IC50, μM); for Glucose consumption (IC50, μM): induction of glucose consumption, 3T3-L1 adipocyte cells, Inactive at >100 μM
# [2] = in vitro; assay type: cell-based; conditions: mouse
# [3] = in vitro; assay type: cell-based; conditions: mouse; remark: listed apart in the source
# [4] = tested on: RAW 264.7 cells; assay: Nitric oxide production inhibition assay; assay type: cell-based
# [5] = tested on: RAW 264.7 cells; assay: in vitro; assay type: cell-based; conditions: MTT assay
# [6] = target: α-glucosidase (Saccharomyces cerevisiae, UniProt P53341); assay type: biochemical; conditions: Inactive at >100 μM
# [7] = tested on: Staphylococcus aureus ATCC 25923; assay: Antimicrobial MIC, 2-fold serial dilution; conditions: for MIC (μg/mL) SA: Gram-positive, Staphylococcus aureus (ATCC 25923), Inactive at >128 μg/mL
# [8] = tested on: Salmonella typhimurium DMST 562; assay: Antimicrobial MIC, 2-fold serial dilution; conditions: for MIC (μg/mL) STR: Gram-negative, Salmonella typhimurium (DMST 562), Inactive at >128 μg/mL
# [9] = tested on: methicillin resistant Staphylococcus aureus NPRC 001R; assay: Antimicrobial MIC, 2-fold serial dilution; conditions: for MIC (μg/mL) MRSA: Gram-positive, Methicillin Resistant Staphylococcus aureus (NPRC 001R), Inactive at >128 μg/mL
# [10] = target: α-amylase (Sus scrofa, UniProt P00690); assay type: biochemical; conditions: Inactive at >100 μM
# [11] = tested on: Pseudomonas aeruginosa ATCC 10145; assay: Antimicrobial MIC, 2-fold serial dilution; conditions: for MIC: Pseudomonas aeruginosa, ATCC10145, read-out: MIC (μg/mL) PA
# [12] = tested on: Streptococcus pyogenes ATCC, 19615; assay: Antimicrobial MIC, 2-fold serial dilution; conditions: for MIC (μg/mL) SP: Gram-positive, Streptococcus pyogenes (ATCC, 19615), Inactive at >128 μg/mL
# [13] = tested on: Salmonella typhi DMST 22842; assay: microbe, parasite or virus in culture; assay type: cell-based; conditions: Gram-negative; Salmonella typhi (DMST 22842); Inactive at >128 μg/mL
# [14] = tested on: advanced glycation end products (AGEs); assay: Glycation inhibition assay; assay type: biochemical; conditions: Inactive at >100 μM
# [15] = tested on: Candida albicans ATCC 10231; assay: Antimicrobial MIC, 2-fold serial dilution; conditions: Fungi; Candida albicans (ATCC 10231); Inactive at >128 μg/mL
# [16] = tested on: Escherichia coli TISTR 780; assay: Antimicrobial MIC, 2-fold serial dilution; conditions: Gram-negative; Escherichia coli (TISTR 780); Inactive at >128 μg/mL
# [17] = tested on: L6 myotube cells; assay: Glucose uptake assay; assay type: cell-based; conditions: Inactive at >100 μM
# [18] = tested on: Enterococcus faecalis ATCC 29212; assay: Antimicrobial MIC, 2-fold serial dilution; conditions: for MIC (μg/mL) EF: Gram-positive, Enterococcus faecalis (ATCC 29212), Inactive at >128 μg/mL
# [19] = tested on: 3T3-L1 cells; assay: in vitro; assay type: cell-based; conditions: for toxicity to the cells: 3T3-L1 adipocyte cells, glucose consumption assay
# [20] = tested on: Shigella flexneri DMST 4423; assay: Antimicrobial MIC, 2-fold serial dilution; conditions: for MIC (μg/mL) SF: Gram-negative, Shigella flexneri (DMST 4423), Inactive at >128 μg/mL
# [21] = tested on: Micrococcus luteus DMST 15503; assay: Antimicrobial MIC, 2-fold serial dilution; conditions: for MIC (μg/mL) MT: Gram-positive, Micrococcus luteus (DMST 15503), Inactive at >128 μg/mL
# [22] = tested on: S. aureus and MRSA; assay: Antibacterial MIC against S. aureus and MRSA; conditions: Staphylococcus aureus, read-out: MIC values against S. aureus and MRSA
# [23] = tested on: Gram-positive bacteria and fungi; assay: Antimicrobial MIC, summary over Gram-positive bacteria and fungi; conditions: read-out: MIC values against Gram-positive bacteria and fungi
# [24] = tested on: S. aureus and MRSA; conditions: previous study; ref Innok et al., 2010; cited from earlier work
# [25] = LPS-stimulated NO production in RAW 264.7 cells, Inactive at >100 μM
# α-glucosidase, sequence (P53341 whole entry): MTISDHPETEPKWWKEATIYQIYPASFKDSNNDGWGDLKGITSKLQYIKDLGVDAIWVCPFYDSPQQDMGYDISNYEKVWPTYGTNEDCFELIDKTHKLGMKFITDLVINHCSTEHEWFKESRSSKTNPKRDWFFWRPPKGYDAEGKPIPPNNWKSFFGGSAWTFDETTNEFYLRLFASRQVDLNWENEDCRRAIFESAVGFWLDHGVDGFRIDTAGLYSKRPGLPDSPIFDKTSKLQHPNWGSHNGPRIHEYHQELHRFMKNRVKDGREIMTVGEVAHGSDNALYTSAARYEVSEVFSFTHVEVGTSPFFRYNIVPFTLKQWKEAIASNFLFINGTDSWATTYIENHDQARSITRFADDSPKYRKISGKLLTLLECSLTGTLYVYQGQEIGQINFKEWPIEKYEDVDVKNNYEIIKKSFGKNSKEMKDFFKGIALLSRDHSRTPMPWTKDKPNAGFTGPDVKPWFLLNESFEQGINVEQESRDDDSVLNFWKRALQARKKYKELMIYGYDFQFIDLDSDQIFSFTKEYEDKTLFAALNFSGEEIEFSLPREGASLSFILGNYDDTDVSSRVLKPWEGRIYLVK
# α-amylase, sequence (P00690 16-511): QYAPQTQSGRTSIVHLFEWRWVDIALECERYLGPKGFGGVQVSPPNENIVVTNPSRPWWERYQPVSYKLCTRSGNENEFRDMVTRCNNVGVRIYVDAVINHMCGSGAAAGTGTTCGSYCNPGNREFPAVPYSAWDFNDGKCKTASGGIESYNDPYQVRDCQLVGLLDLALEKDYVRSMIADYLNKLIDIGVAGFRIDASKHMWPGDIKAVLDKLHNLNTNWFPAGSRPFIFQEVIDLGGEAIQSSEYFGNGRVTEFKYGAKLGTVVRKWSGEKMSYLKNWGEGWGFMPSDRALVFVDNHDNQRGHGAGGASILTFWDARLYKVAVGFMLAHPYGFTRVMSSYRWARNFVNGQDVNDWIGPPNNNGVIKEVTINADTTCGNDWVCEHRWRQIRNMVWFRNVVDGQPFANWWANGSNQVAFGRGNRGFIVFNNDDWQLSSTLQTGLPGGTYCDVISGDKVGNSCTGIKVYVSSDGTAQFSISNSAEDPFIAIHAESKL
compound,measurement,setting,value
"CN(C)C(=N)N=C(N)N [Metformin, metformin, reference compound]",EC50,[1],47.2 ± 1.17 µM
same,viability,[2],99.4 ± 0.6%
same,viability,[3],96.1 ± 0.9%
"N=C(N)NN [Aminoguanidine, aminoguanidine, reference compound]",IC50,"[4]; read-out: NO Inhibition (IC50), LPS-stimulated NO production in RAW 264.7 cells, Inactive at >100 μM",22.4 ± 0.78 µM
same,Cell viability raw 264.7 cells (%),[5],97.9 ± 0.8%
"4′-hydroxy-6,3′,5′-triprenylisoflavanone [Compound 24]","α-Glucosidase inhibition (IC50, μM)",[6],Inactive
same,MIC (μg/mL) SA,[7],128 µg/mL
same,MIC (μg/mL) STR,[8],Inactive
same,"Glucose consumption (IC50, μM)",[1],Inactive
same,MIC (μg/mL) MRSA,[9],128 µg/mL
same,"α-Amylase inhibition (IC50, μM)",[10],Inactive
same,MIC (μg/mL) PA,"[11]; Gram-negative, Pseudomonas aeruginosa (ATCC 10145), Inactive at >128 μg/mL",128 µg/mL
same,MIC (μg/mL) SP,[12],128 µg/mL
same,MIC (μg/mL) ST,[13],128 µg/mL
same,IC50,[14]; read-out: Glycation inhibition (IC50),40.5 ± 0.37 µM
same,MIC (μg/mL) CA,[15],128 µg/mL
same,MIC (μg/mL) EC,[16],128 µg/mL
same,"NO Inhibition (IC50, μM)",[4]; [25],Inactive
same,Cell viability raw 264.7 cells (%),[5],3.7 ± 0.1%
same,Glucose uptake (fold),[17],Inactive
same,MIC (μg/mL) EF,[18],Inactive
same,Cell viability of 3T3-L1 cells (%),[19]; MTT assay,39.7 ± 0.7%
same,MIC (μg/mL) SF,[20],Inactive
same,MIC (μg/mL) MT,[21],Inactive
"CC1(C)C=Cc2cc(C=O)ccc2O1 [Compound 27, 2,2-dimethyl-2H-chromene-6-carboxaldehyde]",MIC (μg/mL) SA,[7],Inactive
same,MIC (μg/mL) STR,[8],Inactive
same,EC50,[1],29.1 ± 0.86 µM
same,MIC (μg/mL) MRSA,[9],Inactive
same,MIC,[11],128 µg/mL
same,MIC (μg/mL) SP,[12],Inactive
same,MIC (μg/mL) ST,[13],Inactive
same,"Glycation inhibition (IC50, μM)",[14],Inactive
same,MIC (μg/mL) CA,[15],Inactive
same,MIC (μg/mL) EC,[16],Inactive
same,IC50,"[4]; Mus musculus, RAW264.7, read-out: NO Inhibition (IC50, μM)",52.5 ± 0.56 µM
same,viability,[2],97.9 ± 1.2%
same,MIC (μg/mL) EF,[18],Inactive
same,viability,[3],98.2 ± 1.7%
same,toxicity to the cells,[19],without toxicity to the cells
same,MIC (μg/mL) SF,[20],Inactive
same,MIC (μg/mL) MT,[21],Inactive
"COc1c2c(cc3oc(=O)ccc13)OC(C)(C)C=C2 [Compound 26, xanthoxyletin]",MIC (μg/mL) SA,[7],Inactive
same,MIC (μg/mL) STR,[8],Inactive
same,EC50,[1],33.4 ± 0.34 µM
same,MIC (μg/mL) MRSA,[9],Inactive
same,MIC,[11],128 µg/mL
same,MIC (μg/mL) SP,[12],Inactive
same,MIC (μg/mL) ST,[13],Inactive
same,"Glycation inhibition (IC50, μM)",[14],Inactive
same,MIC (μg/mL) CA,[15],Inactive
same,MIC (μg/mL) EC,[16],Inactive
same,"NO Inhibition (IC50, μM)",[4]; [25],Inactive
same,MIC (μg/mL) EF,[18],Inactive
same,toxicity to the cells,[19],without toxicity to the cells
same,MIC (μg/mL) SF,[20],Inactive
same,MIC (μg/mL) MT,[21],Inactive
"COc1ccc2c(c1CC=C(C)C)O[C@H]1c3ccc(O)cc3OC[C@@H]21 [Compound 10, sandwicensin]",MIC,"[7]; Staphylococcus aureus, ATCC25923, read-out: MIC (μg/mL) SA",64 µg/mL
same,MIC,"[8]; Salmonella enterica, TYPHIMURIUM, read-out: MIC (μg/mL) STR",128 µg/mL
same,"Glucose consumption (IC50, μM)",[1],Inactive
same,MIC,[22],8 to 64 µg/mL
same,MIC,"[9]; Staphylococcus aureus, MRSA, read-out: MIC (μg/mL) MRSA",8 µg/mL
same,MIC,[11],128 µg/mL
same,MIC,[23],8 to 64 µg/mL
same,MIC,"[12]; Streptococcus pyogenes, read-out: MIC (μg/mL) SP",8 µg/mL
same,MIC (μg/mL) ST,[13],Inactive
same,"Glycation inhibition (IC50, μM)",[14],Inactive
same,MIC values against S. aureus and MRSA (reported),[24],8 to 64 µg/mL
same,MIC (μg/mL) EC,[16],Inactive
same,"NO Inhibition (IC50, μM)",[4]; [25],Inactive
same,MIC,"[18]; Enterococcus faecalis, ATCC29212, read-out: MIC (μg/mL) EF",8 µg/mL
same,MIC,"[20]; Shigella flexneri, DMST4423, read-out: MIC (μg/mL) SF",128 µg/mL
same,MIC,"[21]; Micrococcus luteus, DMST15503, read-out: MIC (μg/mL) MT",8 µg/mL
